Where a name gives a salt, the structure may show the parent alone.

Assay [1] deals with BACE1 enzyme (Homo sapiens (Human), UniProt P56817). The experiment in a line: BACE1 Cell-Free Assay (fluorescence polarization, synthetic APP substrate). It is filed as biochemical. To be noted: geometric mean of 2-7 determinations (values marked b: single determination). From the text:
This assay measures the inhibition of the beta-secretase enzyme as it cleaves a non-native peptide.
A synthetic APP substrate that can be cleaved by beta-secretase having N-terminal biotin and made fluorescent by the covalent attachment of Oregon Green at the Cys residue is used to assay beta-secretase activity in the presence or absence of the inhibitory compounds. […] The BACE1 enzyme is affinity purified material from conditioned media of CHO-K1 cells that have been transfected with a soluble BACE construct (BACE1deltaTM96His). Compounds are incubated in a ½ log dose response curve from a top concentration of 100 μM with BACE1 enzyme and the biotinylated fluorescent peptide in 384-well black plates (Thermo Scientific #4318). BACE1 is at a final concentration of 0.1 nM with a final concentration of peptide substrate of 150 nM in a reaction volume of 30 μL assay buffer (100 mM sodium acetate, pH 4.5 (brought to pH with acetic acid), and 0.001% Tween-20). Plates are covered and incubated for 3 hours at 37° C. The reaction is stopped with the addition of 30 μL of 1.5 μM Streptavidin (Pierce, #21125). After a 10 minute incubation at room temperature, plates are read on a PerkinElmer Envision for fluorescent polarization (Ex485 nm/Em530 nm). The activity of the beta-secretase enzyme is detected by changes in the fluorescence polarization that occur when the substrate is cleaved by the enzyme.

Assay [2] has as its system H4 human neuroglioma cells over-expressing the wild-type human APP695. Briefly: sAPPβ Whole-Cell Assay (in vitro sAPPb assay, ELISA). It is filed as cell-based. Particulars: 18 hours, geometric mean of 2-7 determinations (values marked b: single determination). The method, then:
Whole Cell-Free Assay (In Vitro sAPPb Assay):
H4 human neuroglioma cells over-expressing the wild-type human APP695 are treated for 18 hours with compound in a final concentration 1% DMSO. sAPPβ levels are measured using TMB-ELISA with capture APP N-terminal antibody (Affinity BioReagents, OMA1-03132), wild-type sAPPβ specific reporter p192 (Elan), and tertiary anti rabbit-HRP (GE Healthcare).
Background: ELISA stands for enzyme-linked immunosorbent assay.

Assay [3] concerns the target BACE2 enzyme (Homo sapiens (Human), UniProt Q9Y5Z0). Briefly: BACE2 Cell-free Assay (fluorescence polarization, synthetic substrate). It is filed as biochemical. To be noted: single determination. As to the method:
This assay measures the inhibition of the BACE2 enzyme as it cleaves a non-native peptide. A synthetic substrate that can be cleaved by BACE2 having N-terminal biotin and made fluorescent by the covalent attachment of Oregon Green at the Cys residue is used to assay BACE2 activity in the presence or absence of the inhibitory compounds. The substrate is Biotin-[…]-C(Oregon green)-KK-OH. The BACE2 enzyme is available from Enzo Life Sciences (Cat # BML-SE550). Compounds are incubated in a ½ log dose response curve from a top concentration of 100 μM with BACE2 enzyme and the biotinylated fluorescent peptide in 384-well black plates (Thermo Scientific #4318). BACE2 is at a final concentration of 2.5 nM with a final concentration of peptide substrate of 150 nM in a reaction volume of 30 μL assay buffer (100 mM Sodium Acetate, pH 4.5 (brought to pH with acetic acid), and 0.001% Tween-20). Plates are covered and incubated for 3 hours at 37° C. The reaction is stopped with the addition of 30 μL of 1.5 μM Streptavidin (Pierce, #21125). After a 10 minute incubation at room temperature, plates are read on a PerkinElmer Envision for fluorescent polarization (Ex485 nm/Em530 nm). The activity of the beta-secretase enzyme is detected by changes in the fluorescence polarization that occur when the substrate is cleaved by the enzyme.

BACE2 enzyme, sequence (Q9Y5Z0 63-518): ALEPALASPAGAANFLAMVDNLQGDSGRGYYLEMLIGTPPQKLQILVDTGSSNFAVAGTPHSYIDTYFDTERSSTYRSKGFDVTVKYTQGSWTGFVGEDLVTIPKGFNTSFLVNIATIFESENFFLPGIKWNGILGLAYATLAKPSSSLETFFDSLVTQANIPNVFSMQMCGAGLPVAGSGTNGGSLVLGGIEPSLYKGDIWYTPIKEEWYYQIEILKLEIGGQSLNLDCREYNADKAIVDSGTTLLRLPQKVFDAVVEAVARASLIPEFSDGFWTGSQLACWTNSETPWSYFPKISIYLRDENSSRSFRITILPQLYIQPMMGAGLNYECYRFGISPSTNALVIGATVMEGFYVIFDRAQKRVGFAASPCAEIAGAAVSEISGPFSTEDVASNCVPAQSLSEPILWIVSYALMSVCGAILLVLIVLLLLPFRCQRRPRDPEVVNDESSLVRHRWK
BACE1 enzyme, sequence (P56817 46-457): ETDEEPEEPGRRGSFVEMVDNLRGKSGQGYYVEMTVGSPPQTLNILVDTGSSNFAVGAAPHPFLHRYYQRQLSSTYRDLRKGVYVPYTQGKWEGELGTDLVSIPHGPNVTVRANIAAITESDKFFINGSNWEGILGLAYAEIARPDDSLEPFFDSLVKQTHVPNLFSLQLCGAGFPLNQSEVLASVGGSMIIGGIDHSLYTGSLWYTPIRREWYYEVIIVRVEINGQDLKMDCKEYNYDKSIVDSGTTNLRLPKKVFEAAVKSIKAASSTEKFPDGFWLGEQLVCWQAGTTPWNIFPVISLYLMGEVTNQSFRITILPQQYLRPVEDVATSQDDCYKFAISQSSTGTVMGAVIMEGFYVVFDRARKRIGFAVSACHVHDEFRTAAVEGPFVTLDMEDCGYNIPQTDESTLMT

Broadly, the IC50 is the concentration needed to halve the response being measured. A low value points to higher potency. As for `Cc1cnc([C@H]2C[C@H]3CSC(N)=N[C@@]3(c3ccc(F)cc3F)CO2)nc1` [Example 24, (4aR,6R,8aS)-8a-(2,4-difluorophenyl)-6-(5-methylpyrimidin-2-yl)-4,4a,5,6,8,8a-hexahydropyrano[3,4-d][1,3]thiazin-2-amine, trifluoroacetate salt], the IC50 is 688 nM in assay [1], 24 nM in assay [2] (Homo sapiens) and 1080 nM in assay [3].

As for “(4aR,6R,8aS)-8a-(2,4-Difluorophenyl)-6-(3-methyl-1,2,4-oxadiazol-5-yl)-4,4-a,5,6,8,8a-hexahydropyrano[3,4-][1,3]thiazin-2-amine, trifluoroacetate salt [Example 13]”, the IC50 in assay [1] came out at 439 nM; in assay [2] it was 34 nM; in assay [3] it was 208 nM.

On to “(4aR,6R,8aS)-8a-(2,4-Difluorophenyl)-6-(5-methyl-1,3,4-oxadiazol-2-yl)-4,4-a,5,6,8,8a-hexahydropyrano[3,4-d][1,3]thiazin-2-amine [Example 17]”, for which the 50% inhibitory concentration (IC50) in assay [1] amounted to 301 nM; in assay [2], 10 nM; in assay [3] it was 5560 nM.
